# Reference: patent US10189880B2, “T cell receptors directed against Bob1 and uses thereof” (LEIDEN UNIVERSITY MEDICAL CENTER, priority 2014, dated 2019)
# Where “and” joins values, the source holds several entries; their conditions need not be identical. Identical values can stand only once. Entries after “also recorded” stand apart in the source; their conditions may differ. Like-named read-outs stand apart in the source and are kept apart here.
# Key:
# [1] = AP1903 in vitro effective signaling of cells; type: cell-based
# Method: The fixed dose of AP1903 for injection used, for example, may be 0.4 mg/kg intravenously infused over 2 hours. The amount of AP1903 needed in vitro for effective signaling of cells is about 10-100 nM (MW: 1412 Da). This equates to 14-140 μg/L or ˜0.014-0.14 mg/kg ([…]). The dosage may vary according to the application, and may, in certain examples, be more in the range of 0.1-10 nM, or in the range of 50-150 nM, 10-200 nM, 75-125 nM, 100-500 nM, 100-600 nM, 100-700 nM, 100-800 nM, or 100-900 nM. Doses up to 1 mg/kg were well-tolerated in the Phase I study of AP1903 described above.
# CD3+ΔCD19+ cells = assay: Phase 1 clinical trial of iCasp9 T cells after haploidentical stem cell transplantation; type: in vivo, human
# Text: This example presents results of a phase 1 clinical trial using an alternative suicide gene strategy. Briefly, donor peripheral blood mononuclear cells were co-cultured with recipient irradiated EBV-transformed lymphoblastoid cells (40:1) for 72 hrs, allodepleted with a CD25 immunotoxin and then transduced with a retroviral supernatant carrying the iCasp9 suicide gene and a selection marker (ΔCD19); ΔCD19 allowed enrichment to >90% purity via immunomagnetic selection.
# Patients developing Grade I GvHD were treated with 0.4 mg/kg AP1903 as a 2-hour infusion. Protocols for administration of AP1903 to patients developing Grade I GvHD were established as follows. Patients developing GvHD after infusion of allodepleted T cells are biopsied to confirm the diagnosis and receive 0.4 mg/kg of AP1903 as a 2 h infusion. […] Patients developing grades 2-4 GvHD were administered standard systemic immunosuppressive therapy per institutional guidelines, in addition to the AP1903 dimerizer drug.
# Three patients received iCasp9+ T cells after haplo-CD34+ stem cell transplantation (SCT), at dose levels between about 1×10^6 to about 3×10^6 cells/kg.
# [2] = cited from earlier work
smiles,measurement,setting,value
"CC[C@H](C(=O)N1CCCC[C@H]1C(=O)O[C@H](CCc1ccc(OC)c(OC)c1)c1cccc(OCC(=O)NCCNC(=O)COc2cccc([C@@H](CCc3ccc(OC)c(OC)c3)OC(=O)[C@@H]3CCCCN3C(=O)[C@@H](CC)c3cc(OC)c(OC)c(OC)c3)c2)c1)c1cc(OC)c(OC)c(OC)c1 (relative stereo) [AP1903, 2-Piperidinecarboxylic acid, 1-[(2S)-1-oxo-2-(3,4,5-trimethoxyphenyl)butyl]-, 1,2-ethanediylbis[imino(2-oxo-2,1-ethanediyl)oxy-3,1-phenylene[(1R)-3-(3,4-dimethoxyphenyl)propylidene]]ester, [2S-[1(R*),2R*[S[S*[1(R*),2R*]]]]]-(9Cl)]",amount needed in vitro for effective signaling of cells,[1],10 to 100 nM
same,"amount needed for effective signaling, converted",[1]; MW: 1412 Da,14 to 140 µg/L
same,time to resolution of skin and liver aGvHD,CD3+ΔCD19+ cells; after AP1903 administration,≤ 24 h
same,ablation of CD3+ΔCD19+ cells,"CD3+ΔCD19+ cells; within 30 minutes of infusion, patients with grade I/II aGvHD, 0.4 mg/kg",> 90%
same,further reduction of CD3+ΔCD19+ cells,CD3+ΔCD19+ cells; within 24 hours,further log reduction
same,duration of the adverse event,[2]; 1.0 mg/kg,32 min
same,onset of the adverse event after start of infusion,[2]; 1.0 mg/kg,3 min
same,relation of plasma levels to dose,[2]; 0.01-1.0 mg/kg,directly proportional to dose
same,adverse event considered possibly related to AP1903,[2]; 1 volunteer at the 1.0 mg/kg dosage,vasodilatation
same,plasma level as % of maximal concentration,[2]; 2 hours post-dose,~7%
same,plasma level as % of maximal concentration,[2]; 10 hours post-dose,~1%
same,serious adverse events,[2]; Phase 1 study in volunteers,No serious adverse events
same,safety and tolerability,"[2]; all dose levels, 0.01 to 1.0 mg/kg",well-tolerated; also recorded: No significant adverse effects
same,incidence of adverse events,[2]; following each treatment,very low
same,severity of adverse events,"[2]; human, in vivo",mild
same,mean Cmax / plasma concentrations,"[2]; single IV infusion over 2 hours, 0.01-1.0 mg/kg dose range",10 to 1275 ng/mL and 10 ng/mL
